Assay results published in EP4043466B1, “PRC2 INHIBITORS” (Mirati Therapeutics, Inc., priority 2018, dated 2019).

Experiments:
[1] = system: PRC2-mediated histone H3 methylation; assay: Tri-Methyl Histone H3 (Lys 27) Sandwich ELISA in Pfeiffer cells: inhibition of PRC2-mediated histone H3 methylation; assay type: cell-based, human; conditions: Inhibition of EZH2-mediated histone H3 trimethylation, Pfeiffer cells (EZH2 A677G), 96 hours incubation
Description: The Pfeiffer cell line was established from a […] from a patient having metastatic diffuse large B-cell lymphoma (DLBCL). This cell line expresses a mutant form of the EZH2 enzyme (A677G) that results in enhanced EZH2 activity leading to increased methylation of histone H3 Lys27. Increased trimethylation of histone H3 Lys27 is believed to be implicated in tumorgenesis and poor clinical prognosis in lymphomas (McCabe et al., (2012) Nature 492:108-112).
Inhibition of PRC2-mediated histone H3 methylation by compounds of Formula (I) was measured by ELISA using a Tri-Methyl Histone H3 (Lys 27) Sandwich ELISA Kit (Cell Signaling Tech #7866C) in accordance with the manufacturer's instructions. Briefly, Pfeiffer cells were cultured in RPMI medium supplemented with 10% fetal bovine serum and 1% penicillin and 1% streptomycin in 96 well culture plates at 37°C to a density of 8000 cells/90µl/well and the cells were harvested. A series of 3-fold serial dilutions of each test compound of Formula (I) were prepared in RPMI medium and added to the cells at final concentrations ranging from 1µM to 0.15 nM. The plates were incubated at 37°C for 96 hours.
After incubation, the cells were pelleted by centrifugation in a pre-cooled 4°C rotor at 1, 100 rpm for 10 min and the supernatant was removed by aspiration. The cell pellet was resuspended in 55µl of Lysis Buffer (0.4M HCl) and incubated on ice with periodic shaking for 30 minutes. The lysed cells were subjected to centrifugation at 4, 200 rpm for 10 min at 4°C and the supernatant containing acid-soluble proteins was collected and the remainder discarded. The acid-soluble proteins were brought to a neutral pH by the addition of 20 µl of Neutralization Buffer (1 M Sodium phosphate, dibasic (pH 12.5), 2.5 mM DTT and 1 mM PMSF) and the neutralized lysates were analyzed by ELISA.
A 65 µl aliquot of each cell lysate was added to a well of a microwell strip, the microwells were sealed using tape and incubated either at 37°C for two hours or at 4°C overnight. After incubation, the tape was removed at the microwells were washed four times using 200 µl of 1X Wash Buffer. To each washed microwell, a 100 µl aliquot of an antitrimethyl histone H3 Lys27 Detection Antibody solution was added and the microwells were incubated at 37°C for one hour. The Detection Antibody solution was removed by aspiration and the wells were washed four times each using 200 µl of 1X Wash Buffer.
A 100 µl aliquot of an HRP-linked secondary antibody was added to each well, the wells were sealed with tape and incubated at 37°C for 30 min. The HRP-linked secondary antibody solution was removed by aspiration and the wells were washed four times using 200 µl of 1X Wash Buffer. A 100 µl aliquot of a TMB substrate was added to each well, the wells were sealed with tape and incubated at 37°C for 10 min or 25°C for 30 min. The reaction was stopped by the addition of 100 µl aliquot of a STOP solution and the plate was shaken briefly. The degree of histone H3 trimethylation was determined using a spectrophotometric readout by measuring the absorbance at 450 nm and then calculating the amount of trimethylated histone H3. A = ≤100 nM; B = >100 nM - ≤500 nM; C = >500 nM and N.D. = not determined.

Karpas 422 cells = assay: Karpas 422 cell viability, CTG (Cell Titre Glo) assay; assay type: cell-based, human; conditions: Inhibition of proliferation of Karpas 422 cells (EZH2 Y641N), viability measured Day 4, Day 7 or Day 11, time point of the tabulated values not stated
Summary of the method: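 CellTiter-Glo viability IC50s taken at Day 4, Day 7 and Day 11 of continuous compound exposure (3-fold series, 10µM top, 1.5nM lowest) in RPMI/20% FBS at 37 °C. Y641N-mutant EZH2 lymphoma line seeded at 1000 cells per well; medium and compound replaced on Day 7 for Day 11 read.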

[2] = biological target: purified human, His-tagged PRC2 complex (Homo sapiens, UniProt O75530+Q15910); assay: Hot Spot HMT assay: inhibition of PRC2 enzymatic activity (transfer of tritiated methyl from SAM to core histone, filter binding); assay type: biochemical; conditions: Inhibition of PRC2-mediated enzymatic activity; 10 nM PRC2 complex, 0.05 mg/ml core histone H3, 1 uM 3H-SAM, 1 hr at 30°C
purified human, His-tagged PRC2 complex, sequence (Q15910 whole entry): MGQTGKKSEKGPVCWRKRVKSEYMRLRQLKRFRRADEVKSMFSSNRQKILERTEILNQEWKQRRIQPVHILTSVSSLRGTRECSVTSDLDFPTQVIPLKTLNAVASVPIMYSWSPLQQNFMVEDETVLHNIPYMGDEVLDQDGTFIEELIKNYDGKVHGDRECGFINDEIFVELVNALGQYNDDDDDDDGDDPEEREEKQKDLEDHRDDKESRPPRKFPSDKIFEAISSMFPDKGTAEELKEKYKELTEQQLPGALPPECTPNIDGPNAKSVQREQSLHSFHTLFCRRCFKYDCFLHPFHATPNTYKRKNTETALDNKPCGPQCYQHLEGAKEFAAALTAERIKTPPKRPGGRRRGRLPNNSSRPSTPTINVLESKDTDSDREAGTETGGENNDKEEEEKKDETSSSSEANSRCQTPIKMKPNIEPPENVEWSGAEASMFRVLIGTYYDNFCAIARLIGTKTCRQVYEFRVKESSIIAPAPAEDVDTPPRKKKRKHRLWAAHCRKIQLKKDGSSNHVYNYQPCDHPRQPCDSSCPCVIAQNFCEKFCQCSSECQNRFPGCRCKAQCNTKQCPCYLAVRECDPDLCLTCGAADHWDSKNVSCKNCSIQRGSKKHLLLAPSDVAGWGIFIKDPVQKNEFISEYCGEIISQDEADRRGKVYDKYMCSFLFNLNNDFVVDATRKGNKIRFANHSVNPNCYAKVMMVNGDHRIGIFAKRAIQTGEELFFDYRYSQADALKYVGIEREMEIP
purified human, His-tagged PRC2 complex, sequence (O75530 whole entry): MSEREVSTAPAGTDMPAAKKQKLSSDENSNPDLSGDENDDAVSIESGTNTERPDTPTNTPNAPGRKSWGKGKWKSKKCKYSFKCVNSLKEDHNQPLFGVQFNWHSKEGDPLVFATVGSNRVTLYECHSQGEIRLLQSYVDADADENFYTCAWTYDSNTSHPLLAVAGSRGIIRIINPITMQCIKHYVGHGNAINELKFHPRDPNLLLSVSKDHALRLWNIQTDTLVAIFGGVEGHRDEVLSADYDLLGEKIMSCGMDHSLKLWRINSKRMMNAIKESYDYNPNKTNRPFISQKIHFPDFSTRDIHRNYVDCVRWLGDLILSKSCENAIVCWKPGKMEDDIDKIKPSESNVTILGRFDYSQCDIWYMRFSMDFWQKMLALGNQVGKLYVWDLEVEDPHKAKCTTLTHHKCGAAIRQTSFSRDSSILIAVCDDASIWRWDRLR
purified human, His-tagged PRC2 complex, sequence (Q15022 whole entry partner): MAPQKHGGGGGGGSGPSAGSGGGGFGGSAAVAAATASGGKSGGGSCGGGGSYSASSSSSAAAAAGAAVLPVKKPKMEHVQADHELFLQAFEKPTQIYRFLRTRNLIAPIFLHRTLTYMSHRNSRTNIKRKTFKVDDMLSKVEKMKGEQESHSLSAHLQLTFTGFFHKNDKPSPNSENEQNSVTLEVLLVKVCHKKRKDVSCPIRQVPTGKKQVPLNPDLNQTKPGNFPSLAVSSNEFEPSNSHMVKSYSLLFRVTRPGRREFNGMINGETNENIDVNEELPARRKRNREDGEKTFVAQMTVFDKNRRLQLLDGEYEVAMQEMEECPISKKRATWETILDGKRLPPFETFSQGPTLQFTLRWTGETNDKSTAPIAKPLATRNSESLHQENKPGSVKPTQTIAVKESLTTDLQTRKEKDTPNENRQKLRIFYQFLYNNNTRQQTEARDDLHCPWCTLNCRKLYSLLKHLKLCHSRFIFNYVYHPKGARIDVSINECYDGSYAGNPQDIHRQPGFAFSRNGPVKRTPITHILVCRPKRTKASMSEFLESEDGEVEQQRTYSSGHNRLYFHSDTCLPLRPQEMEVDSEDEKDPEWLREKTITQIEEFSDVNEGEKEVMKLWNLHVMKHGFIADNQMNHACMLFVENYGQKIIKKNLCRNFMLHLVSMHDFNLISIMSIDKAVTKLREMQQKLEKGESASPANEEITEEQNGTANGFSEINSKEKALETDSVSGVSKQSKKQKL
purified human, His-tagged PRC2 complex, sequence (Q6ZN18 whole entry partner): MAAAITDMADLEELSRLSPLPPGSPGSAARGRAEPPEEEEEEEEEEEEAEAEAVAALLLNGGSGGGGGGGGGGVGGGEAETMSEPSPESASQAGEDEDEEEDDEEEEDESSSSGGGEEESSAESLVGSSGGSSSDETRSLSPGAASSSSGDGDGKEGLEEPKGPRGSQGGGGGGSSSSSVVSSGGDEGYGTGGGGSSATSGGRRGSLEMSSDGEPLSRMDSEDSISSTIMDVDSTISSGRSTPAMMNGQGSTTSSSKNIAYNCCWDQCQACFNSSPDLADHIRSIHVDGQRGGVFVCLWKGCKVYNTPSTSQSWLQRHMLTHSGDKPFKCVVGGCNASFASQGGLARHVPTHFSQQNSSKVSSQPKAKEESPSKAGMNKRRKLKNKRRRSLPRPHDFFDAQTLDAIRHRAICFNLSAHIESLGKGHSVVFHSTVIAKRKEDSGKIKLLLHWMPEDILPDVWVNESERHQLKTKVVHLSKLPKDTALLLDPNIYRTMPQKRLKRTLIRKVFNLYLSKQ
purified human, His-tagged PRC2 complex, sequence (Q09028 whole entry partner): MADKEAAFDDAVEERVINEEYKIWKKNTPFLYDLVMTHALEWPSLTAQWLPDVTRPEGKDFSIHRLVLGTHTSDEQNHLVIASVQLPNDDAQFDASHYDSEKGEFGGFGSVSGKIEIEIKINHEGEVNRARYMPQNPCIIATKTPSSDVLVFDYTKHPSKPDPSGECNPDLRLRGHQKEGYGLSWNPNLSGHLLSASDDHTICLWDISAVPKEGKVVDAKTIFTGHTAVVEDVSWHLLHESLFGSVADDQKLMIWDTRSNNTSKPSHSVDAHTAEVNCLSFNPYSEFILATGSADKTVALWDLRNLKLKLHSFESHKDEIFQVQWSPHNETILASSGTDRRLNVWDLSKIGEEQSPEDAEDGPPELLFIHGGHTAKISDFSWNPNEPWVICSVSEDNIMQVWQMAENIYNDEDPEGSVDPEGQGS
Summary of the method: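 Serial compound dilutions starting at 1.0 µM were pre-incubated 20 min at 30°C with 10 nM complex (His-EZH2, Flag-EED, His-SUZ12, His-AEBP2, His-RbAp48) and 0.05 mg/ml core H3. Reaction ran 1 hr at 30°C after adding 1 uM [3H]-SAM; scintillation counting followed filtration.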

| IC50 ([1]; Homo sapiens) [nM] | IC50 (Karpas 422 cells; Homo sapiens) [nM] | IC50 [2] [nM] | Structure (SMILES) | IC50 [1] [nM] | IC50 (Karpas 422 cells) [nM] |
| --- | --- | --- | --- | --- | --- |
| ≤ 100 | ≤ 250 | < 100 | CN(C)C(=O)c1cc(-c2cnc(NCc3c(F)ccc4c3CCO4)n3cc(C#N)nc23)n(C)n1 [Example 170, 5-(2-cyano-5-(((5-fluoro-2,3-dihydrobenzofuran-4-yl)methyl)amino)imidazo[1,2-c]pyrimidin-8-yl)-N,N,1-trimethyl-1H-pyrazole-3-carboxamide] |  |  |
| 100 to 500 | ≤ 250 | < 100 | CNC(=O)c1cc(-c2cnc(NCc3c(F)ccc4c3CCO4)n3cc(C#N)nc23)n(C)n1 [Example 208, 5-(2-cyano-5-(((5-fluoro-2,3-dihydrobenzofuran-4-yl)methyl)amino)imidazo[1,2-c]pyrimidin-8-yl)-N, 1-dimethyl-1H-pyrazole-3-carboxamide] |  |  |
| 100 to 500 | ≤ 250 | < 100 | CNC(=O)c1ccc(-c2cnc(NCc3c(F)ccc4c3CCO4)n3cc(C#N)nc23)cc1 [Example 186, 4-(2-cyano-5-(((5-fluoro-2,3-dihydrobenzofuran-4-yl)methyl)amino)imidazo[1,2-c]pyrimidin-8-yl)-N-methylbenzamide] |  |  |
| 100 to 500 | ≤ 250 | < 100 | Cc1ncc(-c2cnc(NCc3c(F)ccc4c3CCO4)n3cc(C#N)nc23)cn1 [Example 69, 5-(((5-fluoro-2,3-dihydrobenzofuran-4-yl)methyl)amino)-8-(2-methylpyrimidin-5-yl)imidazo[1,2-c]pyrimidine-2-carbonitrile] |  |  |
| ≤ 100 | ≤ 250 | < 100 | CN(C)C(=O)c1ccc(-c2cnc(NCc3c(F)ccc4c3CCO4)n3cc(C#N)nc23)cc1 [Example 180, 4-(2-cyano-5-(((5-fluoro-2,3-dihydrobenzofuran-4-yl)methyl)amino)imidazo[1,2-c]pyrimidin-8-yl)-N,N-dimethylbenzamide] |  |  |
| ≤ 100 | ≤ 250 | < 100 | Cc1cc(-c2cnc(NCc3c(F)ccc4c3CCO4)n3cc(C(N)=O)nc23)n(C)n1 [Example 11, 8-(1,3-dimethyl-1H-pyrazol-5-yl)-5-(((5-fluoro-2,3-dihydrobenzofuran-4-yl)methyl)amino)imidazo[1,2-c]pyrimidine-2-carboxamide] |  |  |
| ≤ 100 | ≤ 250 | < 100 | Cc1cc(CN(C)C)ncc1-c1cnc(NCc2c(F)ccc3c2CCO3)n2cc(C#N)nc12 [Example 195, 8-(6-((dimethylamino)methyl)-4-methylpyridin-3-yl)-5-(((5-fluoro-2,3-dihydrobenzofuran-4-yl)methyl)amino)imidazo[1,2-c]pyrimidine-2-carbonitrile] |  |  |
| 100 to 500 | ≤ 250 | < 100 | CN(C)CCc1ccc(-c2cnc(NCc3c(F)ccc4c3CCO4)n3cc(C#N)nc23)cc1 [Example 163, 8-(4-(2-(dimethylamino)ethyl)phenyl)-5-(((5-fluoro-2,3-dihydrobenzofuran-4-yl)methyl)amino)imidazo[1,2-c]pyrimidine-2-carbonitrile] |  |  |
| ≤ 100 | ≤ 250 | < 100 | Cc1ncccc1-c1cnc(NCc2c(F)ccc3c2CCO3)n2cc(C#N)nc12 [Example 105, 5-(((5-fluoro-2,3-dihydrobenzofuran-4-yl)methyl)amino)-8-(2-methylpyridin-3-yl)imidazo[1,2-c]pyrimidine-2-carbonitrile] |  |  |
| 100 to 500 | ≤ 250 | < 100 | CN(C)CCc1cccc(-c2cnc(NCc3c(F)ccc4c3CCO4)n3cc(C#N)nc23)c1 [Example 217, 8-(3-(2-(dimethylamino)ethyl)phenyl)-5-(((5-fluoro-2,3-dihydrobenzofuran-4-yl)methyl)amino)imidazo[1,2-c]pyrimidine-2-carbonitrile] |  |  |
| 100 to 500 | ≤ 250 | < 100 | N#Cc1cn2c(NCc3c(F)ccc4c3CCO4)ncc(-c3ccc([C@@H]4CCCN4)cc3)c2n1 [Example 219, (S)-5-(((5-fluoro-2,3-dihydrobenzofuran-4-yl)methyl)amino)-8-(4-(pyrrolidin-2-yl)phenyl)imidazo[1,2-c]pyrimidine-2-carbonitrile] |  |  |
| ≤ 100 | ≤ 250 |  | Cn1nc(C(=O)N2CCOCC2)cc1-c1cnc(NCc2c(F)ccc3c2CCO3)n2cc(C#N)nc12 [Example 209, 5-(((5-fluoro-2,3-dihydrobenzofuran-4-yl)methyl)amino)-8-(1-methyl-3-(morpholine-4-carbonyl)-1H-pyrazol-5-yl)imidazo[1,2-c]pyrimidine-2-carbonitrile] |  |  |
| 100 to 500 |  | 100 to 500 | Cn1cc(-c2cnc(NCc3c(F)ccc4c3CCO4)n3cc(C#N)nc23)c(C#N)n1 [Example 224, 8-(3-cyano-1-methyl-1H-pyrazol-4-yl)-5-(((5-fluoro-2,3-dihydrobenzofuran-4-yl)methyl)amino)imidazo[1,2-c]pyrimidine-2-carbonitrile] |  |  |
| ≤ 100 |  | < 100 | CC(c1ccc(-c2cnc(NCc3c(F)ccc4c3CCO4)n3cc(C#N)nc23)cc1)N1CCCC1 (stereo not drawn) [Example 90, 5-(((5-fluoro-2,3-dihydrobenzofuran-4-yl)methyl)amino)-8-(4-(1-(pyrrolidin-1-yl)ethyl)phenyl)imidazo[1,2-c]pyrimidine-2-carbonitrile] |  |  |

| Structure (SMILES) | IC50 ([1]; Homo sapiens) [nM] | IC50 (Karpas 422 cells; Homo sapiens) [nM] | IC50 [2] [nM] | IC50 [1] [nM] | IC50 (Karpas 422 cells) [nM] |
| --- | --- | --- | --- | --- | --- |
| Cc1cc(C2CCCN2)ccc1-c1cnc(NCc2c(F)ccc3c2CCO3)n2cc(C#N)nc12 (single isomer, unassigned) [Example 214, 5-(((5-fluoro-2,3-dihydrobenzofuran-4-yl)methyl)amino)-8-(2-methyl-4-(pyrrolidin-2-yl)phenyl)imidazo[1,2-c]pyrimidine-2-carbonitrile] |  |  | < 100 | 100 to 500 | ≤ 250 |
| Cc1cc(-c2cnc(NCc3c(F)ccc4c3CCO4)n3cc(C(=O)O)nc23)n(C)n1 [Example 1, 8-(1,3-dimethyl-1H-pyrazol-5-yl)-5-(((5-fluoro-2,3-dihydrobenzofuran-4-yl)methyl)amino)imidazo[1,2-c]pyrimidine-2-carboxylic acid] | > 500 | > 500 |  |  |  |
| Cc1ncccc1-c1cnc(NCc2c(F)ccc3c2CCO3)n2cc(C(=O)O)nc12 [Example 2, 5-(((5-fluoro-2,3-dihydrobenzofuran-4-yl)methyl)amino)-8-(2-methylpyridin-3-yl)imidazo[1,2-c]pyrimidine-2-carboxylic acid] | > 500 | > 500 |  |  |  |
| Cc1cc(C2CCCN2)ccc1-c1cnc(NCc2c(F)ccc3c2CCO3)n2cc(C#N)nc12 (single isomer, unassigned) [Example 213, 5-(((5-fluoro-2,3-dihydrobenzofuran-4-yl)methyl)amino)-8-(2-methyl-4-(pyrrolidin-2-yl)phenyl)imidazo[1,2-c]pyrimidine-2-carbonitrile] | 100 to 500 | ≤ 250 |  |  |  |
